What was measured:
DNA Synthesis = settings: grade and speed (rapid/slow); cited from earlier work
RNA Synthesis = settings: grade and speed (rapid/slow); cited from earlier work
[1] = cited from earlier work
psoriasis vulgaris = assay: Clinical trial, topical therapy of psoriasis vulgaris (Examples 11-16); assay type: in vivo, human
Procedure: A patient having dermal manifestations of psoriasis vulgaris was selected for therapy using the invention. Valrubicin was prepared as a solution (ref ex, 5) at a concentration of 2% (weight/weight) and was applied to the affected skin once daily. The patient was monitored for improvement in their manifestations of psoriasis. […] A patient having dermal manifestations of psoriasis vulgaris was selected for therapy using the invention. Valrubicin was prepared as a solution (ref ex. 8) at a concentration of 0.5% (weight/weight) and was applied to the affected skin once daily. The patient was monitored for improvement in their manifestations of psoriasis. […] A patient having dermal manifestations of psoriasis vulgaris was selected for therapy using the invention. Valrubicin was prepared as a gel (ref ex. 6) at a concentration of 1% (weight/weight) and was applied to the affected skin once daily. The patient was monitored for improvement in their manifestations of psoriasis. […] A patient having dermal manifestations of psoriasis vulgaris was selected for therapy using the invention. Valrubicin was prepared as a solution (ref. ex 5) at a concentration of 2.0% (weight/weight) and was applied to the affected skin twice daily. The patient was monitored for improvement in their manifestations of psoriasis. […] A patient having dermal manifestations of psoriasis vulgaris was selected for therapy using the invention. Valrubicin was prepared as a solution (ref. ex 5) at a concentration of 2.0 (weight/weight) and was applied to the affected skin twice a week. The patient was monitored for improvement in their manifestations of psoriasis. […] A patient having dermal manifestations of psoriasis vulgaris was selected for therapy using the invention. Valrubicin was prepared as a solution (ref. ex 5) at a concentration of 2.0% (weight/weight) and was applied to the affected skin once a week. The patient was monitored for improvement in their manifestations of psoriasis.

[2] = 40 mg/ml intravesical instillation of two hours, 6 times once a week; cited from earlier work
[3] = compared to other anthracyclines; cited from earlier work
normal dermal epithelium = settings: histopathological animal experiments; cited from earlier work
[4] = concentration similar to that used in treatment of bladder cancer; cited from earlier work
[5] = in vivo; cited from earlier work
[6] = paravenous injection; cited from earlier work

Compound	DNA Synthesis inhibition (DNA Synthesis)	RNA Synthesis inhibition (RNA Synthesis)	In vivo elimination [1]	In vivo metabolism [1]	Skin lesions of psoriasis (psoriasis vulgaris; gel (ex. 6) 1% w/w, once daily)	Skin lesions of psoriasis (psoriasis vulgaris; solution (ex. 5) 2.0% w/w, once a week)	Skin lesions of psoriasis (psoriasis vulgaris; solution (ex. 5) 2% w/w, once daily)	Skin lesions of psoriasis (psoriasis vulgaris; solution (ex. 5) 2.0% w/w, twice daily)	Skin lesions of psoriasis (psoriasis vulgaris; solution (ex. 5) 2.0 (weight/weight), twice a week)	Skin lesions of psoriasis (psoriasis vulgaris; solution (ex. 8) 0.5% w/w, once daily)	Depth into the epithelium of the bladder at which an effective concentration is found [2] [μm]	Systemic uptake [2]	Lipophilicity [3]	Effect on normal dermal epithelium (normal dermal epithelium)	Irritation of skin and eyes [4]	Cardiotoxicity and haematological toxicity versus other anthracyclines [5]	Local tissue toxicity [6]
COc1cccc2c1C(=O)c1c(O)c3c(c(O)c1C2=O)C[C@@](O)(C(=O)CO)C[C@@H]3O[C@H]1C[C@H](N)[C@H](O)[C@H](C)O1 [Doxorubicin]	+++ (slow)	+ (slow)	Slow	Minimal													
CCCCC(=O)OCC(=O)[C@]1(O)Cc2c(O)c3c(c(O)c2[C@@H](O[C@H]2C[C@H](NC(=O)C(F)(F)F)[C@H](O)[C@H](C)O2)C1)C(=O)c1c(OC)cccc1C3=O [Valrubicin, N-trifluoroacetyladriamycin-14-valerate]	+++ (rapid)	+++ (rapid)	rapid	Extensive	skin lesions had subsided	skin lesions had subsided	skin lesions had subsided	skin lesions had subsided	skin lesions had subsided	skin lesions had subsided	1800	does not result in systemic uptake	very lipophilic	does not affect normal dermal epithelium	mild to no irritation	less cardiotoxic and haematologically toxic	
COc1cccc2c1C(=O)c1c(O)c3c(c(O)c1C2=O)C[C@@](O)(C(=O)CO)C[C@@H]3O[C@H]1C[C@H](N)[C@@H](O)[C@H](C)O1 [epirubicin]																	severe necrosis
